The source of these data is PubChem BioAssay AID1626 (SRMLSC, 2009).

Structures are written as SMILES. pIC50: −log10 of the molar value.

The test has as its system M. tuberculosis H37Rv growth inhibition. In words: M. tuberculosis H37Rv growth inhibitors, H37Rv strain (AID 1626). The note with it: for IC90: measured here: IC90 against H37Rv; for CC50: measured here: Vero cell cytotoxicity.

As for `O=C1CC(/C=C/c2ccc(Cl)cc2)=Nc2ccccc2N1`, the negative logarithm of the IC50 (pIC50) was 5.17, the 90% effect concentration (IC90) was greater than 100 µM and the half-maximal cytotoxic concentration (CC50) came out at 38.6 µM.
Consider `CNC(=O)c1nnsc1S(=O)(=O)c1ccc(Cl)cc1`, for which the pIC50 is 4.67, the IC90 was 22.2 µM and the CC50 was 8.55 µM.
Consider `COc1ccc2[nH]c(=O)c(CN(C(=O)NC3CCCCC3)C3CCCCC3)cc2c1`, for which the concentration for an effect of 90% (IC90) is greater than 100 µM and the half-maximal cytotoxic concentration (CC50) is greater than 40 µM.
As to `COc1ccc(-n2c(C)nc3sc4c(c3c2=O)CCCC4)cc1`, the pIC50 is 4.93 and the IC90 worked out at 13.3 µM.
For `COC(=O)C1C(O)C(C)C(O)C(C)(O)/C=C\C=C(/C)C(=O)Nc2c(C)c(OC(C)=O)c3c(c2O)C(=O)C(C)=C2OCOC(=C23)/C(C)=C/C(C)(O)C(O)C(C)C1O` (configuration not stated), in that order: 6.49 and 0.878 µM.
Consider `O=c1[nH][nH]cc1C=Nc1ccc(Oc2ccccc2)cc1`, for which the pIC50 was 4.81 and the IC90 is greater than 100 µM.
`CC(=O)OCCCN1c2ccccc2Nc2nnc(-c3ccccc3)cc21` had a concentration for an effect of 90% (IC90) greater than 100 µM and a cytotoxic concentration (CC50) greater than 40 µM.
`COc1cccc2c1C(=O)c1c(O)c3c(c(O)c1C2=O)C[C@@](O)(C(=O)CO)C[C@@H]3O[C@H]1C[C@H](N)[C@H](O)[C@H](C)O1`: the pIC50 is 4.89, the 90% effect concentration (IC90) was greater than 100 µM and the CC50 worked out at 7.25 µM.
With `COc1ccccc1NC(=O)CN1CCN(C2c3ccccc3-c3ccccc32)CC1`, the IC90 was greater than 100 µM and the CC50 was greater than 40 µM.
On to `COc1cccc(-c2nnc(Nc3nc4c(F)cccc4s3)o2)c1`, for which the pIC50 is 5.81, the IC90 was 51.8 µM and the cytotoxic concentration (CC50) is greater than 40 µM.
The matching figures for `Cc1ccc(C(=O)Nc2nc(-c3ccccn3)cs2)o1`: 5.59, 6.19 µM and greater than 40 µM.
`Oc1cnn(-c2ccccc2)c1`: the IC90 was greater than 100 µM.
Consider `N#C/C(=C/c1ccc(N2CCCCC2)o1)C(=O)NCCc1c[nH]c2ccccc12`, for which the pIC50 is 4.39, the 90% effect concentration (IC90) was greater than 100 µM and the half-maximal cytotoxic concentration (CC50) is greater than 40 µM.
Consider `CCOC(=O)CNC(=O)CSc1nc(-c2ccccc2)ns1`, for which the negative logarithm of the IC50 (pIC50) was 5.83 and the 90% effect concentration (IC90) stood at 3.2 µM.
The compound `CCOC(=O)c1ccc(NCc2ccc(N(C)C)cc2)cc1` showed an IC90 greater than 100 µM.
Regarding `COc1ccc(N=C(NN)c2ccc3ccccc3n2)cc1`, the pIC50 was 4.26 and the concentration for an effect of 90% (IC90) is greater than 100 µM.
The matching figures for `Nc1ccc2oc(-c3cc(Br)ccc3Cl)nc2c1`: 4.73 and greater than 100 µM.
`O=C(OCC#CCSc1nnc(-c2ccc(Br)cc2)o1)c1cccs1`: the negative-log IC50 (pIC50) is greater than 6.71 and the IC90 was 2.44 µM.
In the case of `CCOc1ccc(N=c2scc(-c3ccccc3)n2CCO)cc1`, the pIC50 is 4.45 and the IC90 is greater than 100 µM.
Turning to `O=C1C2C(c3ccccc3)(C(=O)N1c1ccc(Cl)cc1)C2(c1ccccc1)c1ccccc1` (configuration not stated), the pIC50 was 4.65, the IC90 was greater than 100 µM and the CC50 was greater than 40 µM.
Regarding `CCCC(=O)OCCNc1cc(SCc2ccco2)c2nonc2c1[N+](=O)[O-]`, the negative logarithm of the IC50 (pIC50) was 5.38 and the IC90 was found to be 9.07 µM.
Turning to `CCCNC(=O)c1nnsc1S(=O)(=O)c1ccc(Cl)cc1`, the negative logarithm of the IC50 (pIC50) is 4.60, the IC90 stood at 28 µM and the CC50 is 16.2 µM.
Regarding `CSc1nc(N(C)C)c2ccccc2n1`, the negative logarithm of the IC50 (pIC50) was 4.37 and the IC90 was greater than 100 µM.
The matching figures for `CC(C)CCN1C(=O)c2ccc(-c3nc4ccccc4c(=O)o3)cc2C1=O`: 5.28 and greater than 100 µM.
Consider `COCc1cc(S(=O)c2ccc(Cl)cc2)nc(C)n1` (configuration not stated), for which the negative logarithm of the IC50 (pIC50) is 4.82, the IC90 was 24.3 µM and the CC50 is 22.1 µM.
In turn, `COc1ccc(NCN2C(=O)CCC2=O)cc1` yielded a concentration for an effect of 90% (IC90) greater than 100 µM.
In the case of `C=CCn1c(O)c(C(C)=Nc2ccc(C(=O)OCC)cc2)c(=O)[nH]c1=O`, the negative logarithm of the IC50 (pIC50) was 4.85 and the IC90 is greater than 100 µM.
For `O=C(COC(=O)c1ccccc1Br)NCCC1=CCCCC1`, in that order: 4.75 and greater than 100 µM.
The matching figures for `O=C(CNC(=O)c1ccc(-c2ccccc2)cc1)OCc1c(F)cccc1Cl`: 5.13 and greater than 100 µM.
The matching figures for `COc1ccc(-c2csc(-c3cccs3)n2)cc1OC`: 4.95 and greater than 100 µM.
`O=C(CN1CCC(C(=O)c2ccc3c(c2)OCCO3)CC1)NC1CCCC1` showed a 50% cytotoxic concentration (CC50) greater than 40 µM.
Take `O=C1c2ccccc2-n2c1nc1ccccc1c2=O`: the negative logarithm of the IC50 (pIC50) was greater than 6.71, the IC90 turned out to be 0.601 µM and the 50% cytotoxic concentration (CC50) was greater than 40 µM.
For `COc1ccc(-c2ccnc3nc(N4CCN(c5ccccc5)CC4)nn23)cc1`, in that order: 4.83, greater than 100 µM and greater than 40 µM.
The matching figures for `Cc1ccc(-n2cc(CN3CCC(CO)(Cc4cccc(C(F)(F)F)c4)CC3)cn2)cc1`: 5.37, 7.09 µM and 23.7 µM.
The matching figures for `Oc1ccccc1CNc1cnc2ccccc2c1`: 4.95, greater than 100 µM and greater than 40 µM.
For the compound `O=C(OC(c1ccccc1)c1nccc2ccccc12)c1cc([N+](=O)[O-])cc([N+](=O)[O-])c1` (configuration not stated), the pIC50 was 5.67, the 90% effect concentration (IC90) came out at 4.48 µM and the half-maximal cytotoxic concentration (CC50) was greater than 40 µM.
For `COc1cc(CNCCc2c[nH]c3ccccc23)ccc1OCc1ccccc1F`, in that order: 4.85, 21.3 µM and 15.1 µM.
The matching figures for `Cc1nnc(NC(=O)c2ccc3ccccc3c2)o1`: 6.14, 1.46 µM and greater than 40 µM.
The matching figures for `Cc1ccc(-n2cc(CN(C)Cc3ncc[nH]3)c(-c3cccc(C)c3)n2)cc1`: 4.99, 13.5 µM and greater than 40 µM.
For `CCn1c(COc2cccc3ccccc23)nnc1SCC(=O)OC1CCCCC1`, the pIC50 was 5.39 and the IC90 worked out at 14.1 µM.
For `O=C(CSc1nc(-c2ccccc2Cl)ns1)c1ccc(Cl)cc1`, in that order: 5.06 and greater than 100 µM.
Turning to `COc1ccc(C[C@H]2CN3C(=NC[C@@H]3Cc3ccc(O)cc3)N2CCNC(=O)c2ccc(C)c(Br)c2)cc1`, the pIC50 was 5.36, the IC90 turned out to be 6.16 µM and the half-maximal cytotoxic concentration (CC50) was greater than 40 µM.
The matching figures for `c1ccc2c(Nc3ccc4c(c3)OCCO4)c3c(nc2c1)CCCC3`: 4.95, 29.1 µM and greater than 40 µM.
For `Cc1cc(C)cc(N=c2c([N+](=O)[O-])nn(-c3cccc(Cl)c3)n2O)c1`, in that order: 5.31, 9.8 µM and greater than 40 µM.
For `Cc1cc(C)nc(/N=C(\N)Nc2ccc(-c3ccccc3)cc2)n1`, in that order: 5.56, 11 µM and greater than 40 µM.
Regarding `COc1ccc(C(=O)CSc2nc(-c3ccccn3)nc(C)c2Cl)cc1`, the pIC50 was 5.21, the IC90 was determined as 6.84 µM and the 50% cytotoxic concentration (CC50) is greater than 40 µM.
`COC(=O)C1C2c3ccccc3OC1(C)N=c1s/c(=C/c3cnn(C)c3C)c(=O)n12` (configuration not stated): the negative logarithm of the IC50 (pIC50) is 5.61 and the IC90 came out at 17.7 µM.

As usually defined, the pIC50 is −log10 of the IC50, conventionally taken in molar units. What is called IC90 is the concentration needed for an effect of 90%. A higher IC90 goes with weaker potency. In general, CC50 refers to the concentration that lowers cell viability or growth by half. Read a high CC50 as lower toxicity to the cells.
